Paper PMC11109624, “Celastrol Ameliorates Neuronal Mitochondrial Dysfunction Induced by Intracerebral Hemorrhage via Targeting cAMP‐Activated Exchange Protein‐1” (Advanced Science, 2024)

Biological target: T1, cNMP-EPAC-1 (cNMP domain of EPAC-1, 149-318) (Homo sapiens, UniProt O95398)
T1 construct: gene RAPGEF3; pGEX4T1 N-terminal GST tag, removed by protease; E. coli BL21(DE3); glutathione, Ni-NTA and Superdex 75
T1 sequence (O95398 191-360): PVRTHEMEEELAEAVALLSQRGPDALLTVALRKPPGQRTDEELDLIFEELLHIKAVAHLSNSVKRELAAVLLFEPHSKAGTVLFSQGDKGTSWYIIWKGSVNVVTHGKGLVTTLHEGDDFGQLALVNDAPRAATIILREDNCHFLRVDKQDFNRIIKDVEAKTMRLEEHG
Assay: isothermal titration calorimetry (MicroCal iTC200)
Assay type: binding

**Q.** For CC1=C(O)C(=O)C=C2C1=CC=C1[C@@]2(C)CC[C@@]2(C)[C@@H]3C[C@](C)(C(=O)O)CC[C@]3(C)CC[C@]12C [celastrol], which Kd is on record?
**A.** The Kd was 1570 nM.
